In ChEMBL document CHEMBL6074678, “Selectively Antagonizing the NOD1-Mediated Inflammatory Signaling Pathway Mitigates the Gastric Inflammation Induced by Helicobacter pylori Infection” (J Med Chem, 2024):
Activity calls are given as the source filed them. The rule behind the calls is not given here.

Assays:
[1] = target: Nucleotide-binding oligomerization domain-containing protein 2 (Homo sapiens, UniProt Q9HC29); assay: Inhibition of human NOD2 at 1 uM relative to control
[2] = target: T1, Nucleotide-binding oligomerization domain-containing protein 1 (Mus musculus, UniProt Q8BHB0); assay: Antagonist activity at mouse NOD1 expressed in HEK-Blue cells assessed as decrease in SEAP secretion incubated for 3 hrs followed by C12-iE-DAP stimulation for 20 hrs by spectrophotometry; format: cell-based, HEK-Blue mNOD1
T1 sequence (Q8BHB0 whole entry): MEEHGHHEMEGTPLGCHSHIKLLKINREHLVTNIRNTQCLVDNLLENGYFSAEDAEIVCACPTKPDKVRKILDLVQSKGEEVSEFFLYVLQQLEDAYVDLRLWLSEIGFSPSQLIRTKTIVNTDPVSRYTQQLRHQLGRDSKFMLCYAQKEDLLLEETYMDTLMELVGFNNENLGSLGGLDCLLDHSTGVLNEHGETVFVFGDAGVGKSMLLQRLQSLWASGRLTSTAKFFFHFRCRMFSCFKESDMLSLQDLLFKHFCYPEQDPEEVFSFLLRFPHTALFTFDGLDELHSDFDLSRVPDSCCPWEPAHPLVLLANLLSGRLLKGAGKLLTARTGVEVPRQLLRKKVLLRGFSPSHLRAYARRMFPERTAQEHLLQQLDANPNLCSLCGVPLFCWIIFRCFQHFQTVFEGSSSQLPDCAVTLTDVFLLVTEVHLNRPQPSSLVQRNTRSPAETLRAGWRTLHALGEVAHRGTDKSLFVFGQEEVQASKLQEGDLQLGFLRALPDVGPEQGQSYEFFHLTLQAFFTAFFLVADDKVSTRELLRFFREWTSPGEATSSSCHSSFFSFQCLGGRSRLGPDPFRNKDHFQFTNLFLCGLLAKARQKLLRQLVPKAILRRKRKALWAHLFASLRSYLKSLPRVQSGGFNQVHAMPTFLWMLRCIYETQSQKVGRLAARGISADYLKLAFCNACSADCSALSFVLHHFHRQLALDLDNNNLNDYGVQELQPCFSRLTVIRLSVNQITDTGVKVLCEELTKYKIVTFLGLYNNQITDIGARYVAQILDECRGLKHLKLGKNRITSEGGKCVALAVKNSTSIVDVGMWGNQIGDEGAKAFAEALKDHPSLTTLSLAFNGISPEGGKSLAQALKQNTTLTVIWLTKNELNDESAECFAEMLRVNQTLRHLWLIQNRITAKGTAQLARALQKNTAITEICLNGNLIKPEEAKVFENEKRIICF

[3] = target: Toll-like receptor 2 (Homo sapiens) (UniProt O60603); assay: Inhibition of human TLR2 at 1 uM relative to control
Sequence of Toll-like receptor 2 (Homo sapiens) (O60603 whole entry): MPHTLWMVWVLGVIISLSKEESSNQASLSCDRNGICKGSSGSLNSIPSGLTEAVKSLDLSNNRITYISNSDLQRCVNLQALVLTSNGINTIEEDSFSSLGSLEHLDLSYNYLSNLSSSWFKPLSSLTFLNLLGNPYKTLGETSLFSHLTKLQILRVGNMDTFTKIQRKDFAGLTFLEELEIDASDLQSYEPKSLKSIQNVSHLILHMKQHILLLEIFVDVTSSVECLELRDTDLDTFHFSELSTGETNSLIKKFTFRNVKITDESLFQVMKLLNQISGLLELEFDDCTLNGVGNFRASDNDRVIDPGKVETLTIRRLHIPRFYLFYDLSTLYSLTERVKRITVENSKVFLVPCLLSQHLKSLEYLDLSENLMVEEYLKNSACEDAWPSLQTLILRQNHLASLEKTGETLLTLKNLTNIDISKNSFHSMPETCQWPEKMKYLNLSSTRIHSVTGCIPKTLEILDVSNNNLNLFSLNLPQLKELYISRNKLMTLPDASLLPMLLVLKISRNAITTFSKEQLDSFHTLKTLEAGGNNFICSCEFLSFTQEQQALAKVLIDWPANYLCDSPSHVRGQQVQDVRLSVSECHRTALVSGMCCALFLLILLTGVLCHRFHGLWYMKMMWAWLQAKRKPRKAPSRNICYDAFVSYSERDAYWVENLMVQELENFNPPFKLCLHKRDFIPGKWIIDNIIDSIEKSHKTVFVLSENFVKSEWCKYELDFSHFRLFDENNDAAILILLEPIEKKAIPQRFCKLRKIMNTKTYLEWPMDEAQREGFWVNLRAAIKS

[4] = target: Receptor-interacting serine/threonine-protein kinase 2 (Homo sapiens) (UniProt O43353); assay: Inhibition of RIP2 (unknown origin) at 10 uM relative to control
Sequence of Receptor-interacting serine/threonine-protein kinase 2 (Homo sapiens) (O43353 whole entry, the tested form may be a part): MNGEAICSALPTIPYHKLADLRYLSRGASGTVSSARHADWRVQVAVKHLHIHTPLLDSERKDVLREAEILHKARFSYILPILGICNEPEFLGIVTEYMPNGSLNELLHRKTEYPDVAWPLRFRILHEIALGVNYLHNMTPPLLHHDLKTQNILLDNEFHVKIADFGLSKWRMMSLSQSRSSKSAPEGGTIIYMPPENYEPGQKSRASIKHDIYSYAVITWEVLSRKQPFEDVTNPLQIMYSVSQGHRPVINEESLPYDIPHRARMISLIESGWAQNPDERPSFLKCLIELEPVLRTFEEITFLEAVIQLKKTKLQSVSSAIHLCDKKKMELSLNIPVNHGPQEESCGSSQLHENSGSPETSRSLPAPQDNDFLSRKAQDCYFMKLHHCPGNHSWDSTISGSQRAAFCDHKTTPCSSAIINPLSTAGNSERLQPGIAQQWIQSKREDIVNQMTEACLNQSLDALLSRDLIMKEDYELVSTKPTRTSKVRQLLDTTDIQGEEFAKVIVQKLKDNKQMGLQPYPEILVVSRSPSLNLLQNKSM

[5] = target: T2, Nucleotide-binding oligomerization domain-containing protein 2 (Mus musculus) (UniProt Q8K3Z0); assay: Inhibition of mouse NOD2 at 1 uM relative to control
T2 sequence (whole entry): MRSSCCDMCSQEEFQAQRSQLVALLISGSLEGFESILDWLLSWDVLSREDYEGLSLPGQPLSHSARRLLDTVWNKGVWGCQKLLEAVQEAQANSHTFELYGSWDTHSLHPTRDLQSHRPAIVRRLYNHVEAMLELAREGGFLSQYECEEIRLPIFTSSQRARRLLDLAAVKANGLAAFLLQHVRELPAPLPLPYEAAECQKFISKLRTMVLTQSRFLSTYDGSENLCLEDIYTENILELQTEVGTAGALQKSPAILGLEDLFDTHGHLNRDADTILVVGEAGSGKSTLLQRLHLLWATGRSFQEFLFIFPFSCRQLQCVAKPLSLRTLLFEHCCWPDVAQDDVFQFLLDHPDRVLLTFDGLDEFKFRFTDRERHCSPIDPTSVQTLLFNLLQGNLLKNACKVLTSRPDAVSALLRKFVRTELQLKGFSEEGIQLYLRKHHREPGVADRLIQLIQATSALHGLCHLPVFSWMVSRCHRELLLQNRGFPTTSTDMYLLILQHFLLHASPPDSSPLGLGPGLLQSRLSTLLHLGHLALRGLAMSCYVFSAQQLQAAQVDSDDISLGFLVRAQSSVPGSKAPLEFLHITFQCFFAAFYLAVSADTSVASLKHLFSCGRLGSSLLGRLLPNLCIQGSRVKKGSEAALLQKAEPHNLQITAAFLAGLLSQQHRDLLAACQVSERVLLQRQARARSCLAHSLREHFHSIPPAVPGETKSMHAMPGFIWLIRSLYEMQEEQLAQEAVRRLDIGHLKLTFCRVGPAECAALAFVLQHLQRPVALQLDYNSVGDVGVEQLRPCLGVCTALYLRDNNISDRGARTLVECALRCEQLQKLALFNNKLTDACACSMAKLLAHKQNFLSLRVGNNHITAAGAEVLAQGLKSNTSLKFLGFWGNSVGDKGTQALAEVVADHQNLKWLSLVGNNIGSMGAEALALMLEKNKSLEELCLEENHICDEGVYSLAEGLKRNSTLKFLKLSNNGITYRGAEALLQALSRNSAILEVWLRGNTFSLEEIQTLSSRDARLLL

[6] = target: T3, Nucleotide-binding oligomerization domain-containing protein 1 (Mus musculus) (UniProt Q8BHB0); assay: Antagonist activity at mouse NOD1 expressed in HEK-Blue cells assessed as decrease in SEAP secretion at 1 uM incubated for 3 hrs followed by C12-iE-DAP stimulation for 20 hrs by spectrophotometry relative to control; format: cell-based; conditions: HEK-Blue mNOD1, filed as antagonist, time 23.0 hrs
T3 sequence (whole entry): T1 sequence (Q8BHB0 whole entry)

[7] = MRT (infinity) in C57BL/6 mouse at 2 mg/kg, iv by LC-MS/MS analysis; format: ADME, organism-based; conditions: in vivo
[8] = Oral bioavailability in C57BL/6 mouse at 20 mg/kg by LC-MS/MS analysis; format: ADME, organism-based; conditions: in vivo
BMDM = assay: Anti-inflammatory activity in mouse BMDM cells assessed as decrease in TNF-alpha mRNA level at 1 to 5 uM pretreated for 1 hr followed by infection with Helicobacter pylori for 2 hrs by RT-qPCR analysis; format: functional, cell-based; conditions: dose 1-5 µM, time 3.0 hrs
AGS [9] = assay: Anti-inflammatory activity in human AGS cells assessed as decrease in CXCL8 mRNA level at 1 uM pretreated for 1 hr followed by C12-iE-DAP stimulation for 2 hrs by RT-qPCR analysis; format: functional, cell-based; conditions: time 3.0 hrs
AGS [10] = assay: Anti-inflammatory activity in human AGS cells assessed as decrease in CXCL8 mRNA level at 1 to 5 uM pretreated for 1 hr followed by infection with Helicobacter pylori for 2 hrs by RT-qPCR analysis; format: functional, cell-based; conditions: dose 1-5 µM, time 3.0 hrs
[11] = Half life in C57BL/6 mouse at 2 mg/kg, iv by LC-MS/MS analysis; format: ADME, organism-based; conditions: in vivo
Mus musculus = assay: Anti-inflammatory activity in C57BL/6 mouse assessed as inhibition of serum keratinocyte chemoattractant level pretreated orally with compound for 15 mins followed by C12-iE-DAP administration measured after 2 hrs by ELISA; format: functional, organism-based; conditions: dose 12.5-50 mg/kg, route po, time 135.0 min

Sequence of Nucleotide-binding oligomerization domain-containing protein 2 (Q9HC29 whole entry, the tested form may be a part): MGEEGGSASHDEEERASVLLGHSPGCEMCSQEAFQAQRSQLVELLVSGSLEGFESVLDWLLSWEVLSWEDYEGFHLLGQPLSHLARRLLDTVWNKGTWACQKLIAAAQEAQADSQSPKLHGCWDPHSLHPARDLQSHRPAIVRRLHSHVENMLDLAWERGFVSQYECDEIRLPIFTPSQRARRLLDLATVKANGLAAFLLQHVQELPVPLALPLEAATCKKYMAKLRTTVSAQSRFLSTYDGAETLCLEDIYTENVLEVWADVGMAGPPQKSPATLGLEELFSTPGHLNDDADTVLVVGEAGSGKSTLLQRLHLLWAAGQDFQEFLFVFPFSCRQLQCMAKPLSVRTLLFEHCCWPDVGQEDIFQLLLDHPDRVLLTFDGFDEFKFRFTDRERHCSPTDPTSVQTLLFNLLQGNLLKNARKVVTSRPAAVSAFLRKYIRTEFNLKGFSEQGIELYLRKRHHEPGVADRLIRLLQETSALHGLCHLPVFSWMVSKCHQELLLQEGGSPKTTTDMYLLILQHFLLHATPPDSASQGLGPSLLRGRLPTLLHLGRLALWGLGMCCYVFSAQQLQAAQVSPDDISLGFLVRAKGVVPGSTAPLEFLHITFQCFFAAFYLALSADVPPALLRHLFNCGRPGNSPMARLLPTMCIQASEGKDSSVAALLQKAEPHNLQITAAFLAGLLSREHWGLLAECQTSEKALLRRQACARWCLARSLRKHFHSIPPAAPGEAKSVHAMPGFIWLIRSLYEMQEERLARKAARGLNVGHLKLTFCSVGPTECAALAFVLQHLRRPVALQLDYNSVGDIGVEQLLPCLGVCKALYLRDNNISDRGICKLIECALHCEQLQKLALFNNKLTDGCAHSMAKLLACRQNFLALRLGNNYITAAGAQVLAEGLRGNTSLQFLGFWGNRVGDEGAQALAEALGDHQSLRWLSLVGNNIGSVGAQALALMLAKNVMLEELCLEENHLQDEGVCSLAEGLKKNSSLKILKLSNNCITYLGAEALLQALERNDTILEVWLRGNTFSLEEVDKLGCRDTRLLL

Row | inhibition [1] [%] | IC50 [2] [nM] | inhibition [3] [%] | inhibition [4] [%] | inhibition [5] [%] | inhibition [6] [%] | MRT inf [7] [min] | bioavailability [8] [%] | t1/2 [11] [min] | Structure (SMILES) | Activity (BMDM) | Activity (AGS [9]) | Activity (AGS [10]) | inhibition (Mus musculus)
1 | 16.1 | 58 | 52.3 | 10.5 | < 10 | 87.2 | – | – | – | CS(=O)(=O)c1ccc2nc(Cl)n(-c3ccc(Cl)c(NS(=O)(=O)c4ccc5ncsc5c4)c3)c(=O)c2c1 | – | – | – | –
2 | < 10 | 54 | 8.5 | < 10 | 20.2 | 73.6 | – | – | – | N#Cc1ccc2nc(Cl)n(-c3ccc(Cl)c(NS(=O)(=O)c4c(F)cccc4F)c3)c(=O)c2c1 | – | – | – | –
3 | 36.9 | 32 | 12.8 | 11.4 | 21.9 | 80.8 | 2.76 | 4.77 | 3.9 | CS(=O)(=O)c1ccc2nc(Cl)n(-c3ccc(Cl)c(NS(=O)(=O)c4c(F)cccc4F)c3)c(=O)c2c1 | Active | Active | Active | Dose-dependent-effect
